PMC12031583 (Toxins, 2025)
Several values for one entry are separate records, joined by “and”; a condition that tells them apart may be missing. Identical values can stand only once. Like-named read-outs stand apart in the source and are kept apart here.

Assays:
[1] = target: T1, β-lactoglobulin (LG, bovine) (Bos taurus, UniProt P02754); format: binding; conditions: pH 6.8
[2] = target: T2, α1-acid glycoprotein (AGP) (Homo sapiens, UniProt P02763); conditions: for effect on fluorescence emission signal of AGP / logK FL Quenching: pH 7.4
T2 sequence (P02763 19-201 limits assumed): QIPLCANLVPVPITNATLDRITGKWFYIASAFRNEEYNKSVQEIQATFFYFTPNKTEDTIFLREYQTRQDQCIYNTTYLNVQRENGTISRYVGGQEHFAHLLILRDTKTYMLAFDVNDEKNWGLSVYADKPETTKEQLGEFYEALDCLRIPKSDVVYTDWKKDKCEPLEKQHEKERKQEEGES

[3] = target: T3, α-lactalbumin (LA, bovine) (Bos taurus, UniProt P00711); test: biochemical; format: binding
T3 sequence (P00711 20-142 limits assumed): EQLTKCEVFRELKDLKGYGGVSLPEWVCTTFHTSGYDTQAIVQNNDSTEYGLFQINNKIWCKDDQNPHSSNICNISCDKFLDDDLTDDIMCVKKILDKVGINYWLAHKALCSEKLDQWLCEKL

[4] = test system: human serum albumin (HSA); conditions: cited from earlier work
[5] = target: T4, bovine serum albumin (BSA) (Bos taurus, UniProt P02769); test: biochemical; conditions: logK BSA
T4 sequence (P02769 25-607 limits assumed): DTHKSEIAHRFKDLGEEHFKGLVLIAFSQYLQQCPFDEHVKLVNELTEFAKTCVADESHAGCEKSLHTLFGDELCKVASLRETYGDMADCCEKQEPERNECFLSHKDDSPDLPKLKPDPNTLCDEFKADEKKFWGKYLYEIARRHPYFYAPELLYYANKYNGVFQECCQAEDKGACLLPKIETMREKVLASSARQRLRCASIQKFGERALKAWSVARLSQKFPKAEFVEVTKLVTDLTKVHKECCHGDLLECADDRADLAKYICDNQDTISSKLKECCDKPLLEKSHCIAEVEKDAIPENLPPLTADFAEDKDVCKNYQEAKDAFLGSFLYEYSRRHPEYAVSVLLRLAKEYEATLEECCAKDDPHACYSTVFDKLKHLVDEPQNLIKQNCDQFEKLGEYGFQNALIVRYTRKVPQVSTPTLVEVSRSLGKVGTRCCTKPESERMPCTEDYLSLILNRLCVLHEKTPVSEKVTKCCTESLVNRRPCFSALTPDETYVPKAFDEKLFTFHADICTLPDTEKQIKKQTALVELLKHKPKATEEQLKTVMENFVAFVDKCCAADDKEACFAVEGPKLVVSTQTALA

casein (CSN, bovine) [6] = format: binding; conditions: pH 6.8
[7] = target: T1, β-lactoglobulin (LG, bovine); test: biochemical; format: binding
[8] = target: T4, bovine serum albumin (BSA)
[9] = target: T4, bovine serum albumin (BSA); conditions: cited from earlier work
[10] = target: T2, α1-acid glycoprotein (AGP); test: in vitro
[11] = target: T3, α-lactalbumin (LA, bovine); format: binding; conditions: pH 6.8
[12] = target: T2, α1-acid glycoprotein (AGP); test: in vitro; remark: listed apart in the source
[13] = target: T2, α1-acid glycoprotein (AGP); test: in vitro; conditions: pH 7.4
[14] = target: T2, α1-acid glycoprotein (AGP); conditions: pH 7.4
[15] = target: T2, α1-acid glycoprotein (AGP); conditions: for logK FL Enhancement: pH 7.4
[16] = target: T2, α1-acid glycoprotein (AGP); format: binding
casein (CSN, bovine) [17] = format: binding; conditions: pH 6.8; remark: listed apart in the source

T1 sequence (P02754 17-178 limits assumed): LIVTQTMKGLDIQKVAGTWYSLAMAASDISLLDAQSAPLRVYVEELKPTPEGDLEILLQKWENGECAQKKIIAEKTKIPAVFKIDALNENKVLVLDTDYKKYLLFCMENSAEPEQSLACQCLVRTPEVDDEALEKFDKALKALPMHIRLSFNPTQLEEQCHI

CC(=O)OC[C@]12C[C@H](OC(=O)CC(C)C)C(C)=C[C@H]1O[C@@H]1[C@H](O)[C@@H](OC(C)=O)[C@@]2(C)[C@]12CO2 [T2, T-2 toxin]
effect on fluorescence emission signal of LG [1]: minor increase
effect on fluorescence emission signal of AGP [2]: no or only minor decreases

COc1cc2c(c3oc4cccc(O)c4c(=O)c13)[C@@H]1C=CO[C@@H]1O2 [STC, sterigmatocystin]
effect of LA on mycotoxin level (free fraction) in supernatant ([3]; pH 6.8): not influenced
K value of STC–HSA complex [4]: ≈ 2 × 10^4 L/mol
Kd [5]: 100 µM and 105 µM
effect of CSN on mycotoxin level (free fraction) in supernatant (casein (CSN, bovine) [6]): not influenced
effect of LG on mycotoxin level (free fraction) in supernatant ([7]; pH 6.8): not influenced
effect on fluorescence emission signal of AGP [2]: larger, concentration-dependent decreases

aflatoxin M1 [AFM1]
effect of LA on mycotoxin level (free fraction) in supernatant ([3]; pH 6.8): did not show interactions
fold higher affinity (binding constant) to BSA vs CSN [8]: 10 fold
logK BSA ([8]; pH 6.8): 3.80 ± 0.03
logK CSN (casein (CSN, bovine) [6]): 2.70 ± 0.08
effect of LG on mycotoxin level (free fraction) in supernatant ([7]; pH 6.8): did not show interactions

O=C1C=C2C(=CCOC2O)O1 (centres unmarked) [PAT, patulin]
effect on fluorescence emission signal of AGP [2]: no or only minor decreases

C[C@H]1CCCC(=O)CCC/C=C/c2cc(O)cc(O)c2C(=O)O1 [ZEN, zearalenone]
logK of ZEN–BSA and α-ZEL–BSA complexes [9]: 4.8
Kd [3]: 1620 µM
logK of complex with HSA [4]: 5.1
Kd ([10]; pH 7.4, logK FL Enhancement): 0.525 µM
Kd ([10]; pH 7.4, logK ± SEM 1. (FL enhancement)): 0.661 µM
Kd ([10]; pH 7.4, logK ± SEM 2. (FL enhancement)): 0.407 µM
Kd ([10]; pH 7.4, logK ± SEM 3. (FL enhancement)): 0.55 µM
fold higher affinity (binding constant) to BSA vs CSN ([8]; bovine, ultracentrifugation, pH 6.8): approximately 20 fold
Kd [5]: 15.8 µM and 16.2 µM
logK CSN (casein (CSN, bovine) [6]): 3.48 ± 0.01
quenching effect on fluorescence emission signal of LA [11]: slight
Kd ([12]; pH 7.4, logK FL Quenching): 1.26 µM
Kd ([12]; pH 7.4, logK ± SEM 1. (FL quenching)): 1.35 µM
Kd ([12]; pH 7.4, logK ± SEM 2. (FL quenching)): 1.45 µM
Kd ([12]; pH 7.4, logK ± SEM 3. (FL quenching)): 1 µM
Kd [7]: 891 µM
effect on fluorescence emission signal of AGP [2]: larger, concentration-dependent decreases
Kd [13]: 0.372 µM

CC1=C[C@H]2O[C@@H]3[C@H](O)C[C@](C)([C@@]2(CO)[C@H](O)C1=O)[C@]31CO1 [DON, deoxynivalenol]
effect on fluorescence emission signal of AGP [2]: no or only minor decreases

CCCC[C@@H](C)[C@@H](OC(=O)C[C@@H](CC(=O)O)C(=O)O)[C@H](C[C@@H](C)C[C@H](O)CCCC[C@@H](O)C[C@H](O)[C@H](C)N)OC(=O)C[C@@H](CC(=O)O)C(=O)O [FB1, fumonisin B1]
effect on fluorescence emission signal of AGP [2]: no or only minor decreases

C[C@H]1CCC[C@@H](O)CCC/C=C/c2cc(O)cc(O)c2C(=O)O1 [β-ZEL, β-zearalenol]
logK of complex with HSA [4]: 4.3
logK Ultracentrifugation [14]: 5.73 ± 0.02
logK ± SEM 1. (FL enhancement) [15]: 5.83 ± 0.04
logK ± SEM 2. (FL enhancement) [15]: 5.94 ± 0.16
logK ± SEM 3. (FL enhancement) [15]: 6.04 ± 0.11
logK FL Enhancement [15]: 5.94 ± 0.06
binding constant (K) of mycotoxin–AGP complex [16]: ~600000 L/mol
fold higher affinity to AGP compared to HSA [16]: ~30 fold
logK ± SEM 1. (FL quenching) [2]: 5.76 ± 0.06
logK ± SEM 2. (FL quenching) [2]: 5.82 ± 0.09
logK ± SEM 3. (FL quenching) [2]: 5.76 ± 0.08
logK FL Quenching [2]: 5.78 ± 0.02

CC(=O)C1=C(O)[C@@H]2[C@H]3c4c[nH]c5cccc(c45)C[C@H]3C(C)(C)N2C1=O [CPA, cyclopiazonic acid]
effect on fluorescence emission signal of AGP [2]: no or only minor decreases

C[C@@H]1Cc2c(Cl)cc(C(=O)N[C@@H](Cc3ccccc3)C(=O)O)c(O)c2C(=O)O1 [OTA, ochratoxin A]
logK of OTA–BSA and AOH–BSA complexes [9]: 6.5
quenching effect on fluorescence emission signal of LA [11]: slight
effect on fluorescence emission signal of CSN (casein (CSN, bovine) [17]): slight decreases
effect on fluorescence emission signal of AGP [2]: no or only minor decreases

Cc1cc(O)cc2oc(=O)c3c(O)cc(O)cc3c12 [AOH, alternariol]
logK of OTA–BSA and AOH–BSA complexes [9]: 5.9

aflatoxin B1 [AFB1]
logK of AFB1–BSA [9]: ≈ 4.5
effect of LA on mycotoxin level (free fraction) in supernatant ([3]; pH 6.8): did not modify
logK BSA ([8]; pH 6.8): 4.1 and 4.11 ± 0.02
logK CSN (casein (CSN, bovine) [6]): 3.3 and 3.34 ± 0.03
quenching effect on fluorescence emission signal of LA [11]: slight
effect on fluorescence emission signal of CSN (casein (CSN, bovine) [17]): slight decreases
effect of LG on mycotoxin level (free fraction) in supernatant ([7]; pH 6.8): did not modify
effect on fluorescence emission signal of AGP [2]: no or only minor decreases

CC1=C2C(=CO[C@H](C)[C@H]2C)C(O)=C(C(=O)O)C1=O [CIT, citrinin]
effect on fluorescence emission signal of AGP [2]: no or only minor decreases

C[C@H]1CCC[C@H](O)CCC/C=C/c2cc(O)cc(O)c2C(=O)O1 [α-ZEL, α-zearalenol]
logK of ZEN–BSA and α-ZEL–BSA complexes [9]: 4.5
logK LA ([3]; pH 6.8): 2.92 ± 0.06
logK of complex with HSA [4]: 4.7
logK Ultracentrifugation [14]: 5.48 ± 0.07
fold higher affinity (binding constant) to BSA vs CSN [8]: approximately 20 fold
logK ± SEM 1. (FL enhancement) [15]: 5.46 ± 0.06
logK ± SEM 2. (FL enhancement) [15]: 5.46 ± 0.08
logK ± SEM 3. (FL enhancement) [15]: 5.62 ± 0.07
logK FL Enhancement [15]: 5.51 ± 0.05
logK CSN (casein (CSN, bovine) [6]): 3.54 ± 0.01
quenching effect on fluorescence emission signal of LA [11]: slight
effect on fluorescence emission signal of CSN (casein (CSN, bovine) [17]): slight decreases
logK LG ([7]; pH 6.8): 3.35 ± 0.03
binding constant (K) of mycotoxin–AGP complex [16]: approximately 3 × 10^5 L/mol
fold higher affinity to AGP compared to HSA [16]: ~5 fold
logK ± SEM 1. (FL quenching) [2]: 5.57 ± 0.07
logK ± SEM 2. (FL quenching) [2]: 5.67 ± 0.05
logK ± SEM 3. (FL quenching) [2]: 5.70 ± 0.06
logK FL Quenching [2]: 5.65 ± 0.04
